Test results published in patent publication US6436915B1, “Pyrazole compounds” (Kinetek Pharmaceuticals, Inc., priority 2000, dated 2002).

System: Lewis Lung Carcinoma cells
Experiment: Anti-tumor activity in a murine model using Lewis Lung Carcinoma cells (FIG. 1)
Type: in vivo
Conditions: FIG. 1 legend only

SMILES | anti-tumor activity
COc1ccc(N/N=C2/C(=N)NN=C2N)cc1 [KP-15792, 3,5-diamino-4-(p-methoxyphenyl)hydrazonopyrazole] | anti-tumor activity

Target: T1, integrin linked kinase (Homo sapiens, UniProt Q13418)
T1 construct: The target integrin linked kinase is a full-length recombinant protein expressed in sF9 insect cells by baculovirus infection; GST (N); made in house; host or cells: Baculovirus; virus made in Sf9 cells, litre-scale expression in Hi5 insect cells
T1 sequence (Q13418 1-452): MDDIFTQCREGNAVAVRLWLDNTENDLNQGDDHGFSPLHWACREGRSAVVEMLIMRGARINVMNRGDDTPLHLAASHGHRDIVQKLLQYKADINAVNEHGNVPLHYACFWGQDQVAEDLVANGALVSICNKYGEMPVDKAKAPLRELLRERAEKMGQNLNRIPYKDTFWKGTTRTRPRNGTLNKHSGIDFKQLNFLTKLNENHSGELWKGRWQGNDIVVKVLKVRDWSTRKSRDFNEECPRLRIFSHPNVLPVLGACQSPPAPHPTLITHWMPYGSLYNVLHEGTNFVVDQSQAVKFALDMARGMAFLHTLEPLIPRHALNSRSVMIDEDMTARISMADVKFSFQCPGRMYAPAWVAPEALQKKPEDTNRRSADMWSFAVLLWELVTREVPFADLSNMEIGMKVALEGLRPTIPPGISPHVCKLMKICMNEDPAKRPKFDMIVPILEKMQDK
Experiment: In vitro kinase inhibition assay, integrin linked kinase (radioactive phosphate incorporation, scintillation counting)
Type: biochemical
Conditions: full-length recombinant ILK expressed in insect cells; substrate CKRRRLASLR-amide; 15 min at room temperature
Description: Compounds were screened using a series of disease related kinase targets, such as integrin linked kinase-1. Synthesized libraries of compounds are tested against each of the targets to find compounds that inhibit one of the targets preferentially. The desired in vitro potency of the inhibitor is such that the compound is useful as a therapeutic agent, i.e. in the nanomolar or micromolar range.
Inhibition of the targets is measured by scintillation counting; the incorporation of radioactive phosphate onto a specific substrate which is immobilized onto a filter paper at the end of the assay. To provide meaningful measurements of inhibition, the assays are performed both in the absence and presence of specific and known inhibitors, and the amount of incorporated radioactivity is compared to provide a baseline measurement.
The baseline activity is the amount of radioactivity incorporated in the absence of inhibitor. The amount of radioactivity incorporated in the presence of an inhibitor is called the ‘sample activity’, and the % inhibition is expressed by the following formula:
% inhibition=100−sample activity/baseline activity*100)
and is usually expressed in conjunction with the compound concentration. By using a range of inhibitor concentrations, the IC50 of an inhibitor is estimated (i.e. the concentration at which enzymatic activity is reduced by 50%).
Inhibition Assay: Compounds listed in Table 1 were lyophilized and stored at −20° C. Stock solutions were made by weighing out the compounds and dissolving them in dimethyl sulfoxide (DMSO) to a standard concentration, usually 20 mM, and stored at −20° C. The compounds were diluted to a starting intermediate concentration of 250 μM in 1% DMSO, then serially diluted across a row of a 96 well plate using serial 2 fold dilution steps. Diluted 100% DMSO was used as a negative control. 5 μl of each compound dilution were robotically pipetted to Costar serocluster plates maintaining the same plate format. All assays consisted of the following volumes:
and were then incubated 15 min at room temperature.
From each reaction, 10 μl of reaction mix was spotted onto Millipore Multiscreen-PH opaque plates and washed 2×10 min in 1% phosphoric acid. The plates were dried for at 40° C. for 30 min, then the substrate phosphate complexes were quantitated by scintillation counting. These Millipore plates are in a 96 well format with immobilized P81 phosphocellulose membranes. Both the phosphorylated and non-phosphorylated form of the substrate bind to the membrane while ATP (unincorporated phosphate) is removed in the subsequent wash steps.
Integrin Linked Kinase: The target integrin linked kinase is a full-length recombinant protein expressed in sF9 insect cells by baculovirus infection. The ILK1 substrate is CKRRRLASLR-amide.
Recombinant ILK protein was expressed using cultured insect cells and a baculovirus expression system. Standard techniques for DNA manipulation were used to produce recombinant DNA molecules and baculoviruses (Sambrook. J., Fritsch, E. F. and Maniatis, T. 1989. Molecular cloning, a laboratory manual. Second edition. Cold Spring Harbor Laboratory Press. NY; Crossen, R. and Gruenwald, S. 1998. Baculovirus expression Vector System Manual. 5th Edition. Pharmingen, San Diego, Calif.) but the isolation of active ILK required some ingenuity.
The ILK open reading frame (Hannigan et al., supra.), excluding the 5′ and 3′ untranslated regions, was inserted into the baculovirus transfer vector pAcG2T (Pharmingen) to produce a GST fusion protein under the control of the strong AcNPV polyhedrin promoter. A large scale plasmid preparation of the resulting transfer construct was made using a Qiagen Plasmid Midi Kit. This ILK transfer construct was then co-transfected with BaculoGold DNA (Pharmingen) into Sf9 insect cells (Invitrogen) and a high titre preparation of GST-ILK recombinant baculovirus was produced by amplification in Sf9 cells. […]

SMILES | IC50 [µM]
COc1ccc(N/N=C2/C(=N)NN=C2N)cc1 [KP-15792, 3,5-diamino-4-(p-methoxyphenyl)hydrazonopyrazole] | 1
N=C1NN=C(N)/C1=N/Nc1ccccc1 [KP-23194, 3,5-diamino-4-phenylhydrazonopyrazole] | 0.6
COc1ccc(NN=C2C(N)=NN=C2N)cc1O [KP-23197, 3,5-diamino-4-(3-hydroxy-4-methoxyphenyl)hydrazonopyrazole] | 4
NC1=NNC(=O)C1/N=N/c1ccccc1 (stereo not shown) [KP-23198, 3-amino-4-phenylazo-2-pyrazolin-5-one] | 17.1
Cc1ccc(/N=N/C2C(=O)NN=C2N)cc1 (stereo not shown) [KP-23199, 3-amino-4-(p-methylphenylazo)-2-pyrazolin-5-one] | > 20
COc1ccc(/N=N/C2C(=O)NN=C2N)cc1 (stereo not shown) [KP-23200, 3-amino-4-(p-methoxyphenylazo)-2-pyrazolin-5-one] | > 20
COc1ccc(/N=N/C2C(=O)NN=C2N)cc1O (stereo not shown) [KP-23201, 3-amino-4-(3-hydroxy-4-methyoxyphenylazo)-2-pyrazolin-5-one] | 18
O=C1NNC(=O)C1=NNc1ccccc1 [KP-23202, 4-phenylhydrazonopyrazolin-3,5-dione] | > 20
Cc1ccc(NN=C2C(=O)NNC2=O)cc1 [KP-23203, 4-(p-methylphenyl)hydrazonopyrazolin-3,5-dione] | > 20
COc1ccc(NN=C2C(=O)NNC2=O)cc1 [KP-23204, 4-(p-methoxyphenyl)hydrazonopyrazolin-3,5-dione] | > 20
COc1ccc(NN=C2C(=O)NNC2=O)cc1O [KP-23205, 4-(3-hydroxy-4-methyoxyphenyl)hydrazonopyrazolin-3,5-dione] | > 20
NC1=NN=C(N)C1=NNc1ccc(S(=O)(=O)O)cc1 [KP-27288, 4-[N′-(3,5-diaminopyrazole-4-ylidene)hydrazino]benzenesulfonic acid] | > 20
NC1=NN=C(N)C1=NNc1cccc2ccccc12 [KP-27294, 3,5-diamino-4-(1-naphthyl)hydrazonopyrazole] | 0.6
NC1=NN=C(N)C1=NNc1ccc(S(=O)(=O)O)c2ccccc12 [KP-27295, 4-[N′-(3,5-Diaminopyrazol-4-ylidene)hydrazino]naphthalene-1-sulfonic acid] | 19.3
NC1=NN=C(N)C1=NNc1ccc(C(=O)O)cc1 [KP-27388, 4-[N′-(3,5-diaminopyrazol-4-ylidene)hydrazino]benzoic acid] | 13
CC(=O)Nc1ccc(NN=C2C(N)=NN=C2N)cc1 [KP-27392, 3,5-diamino-4-(p-acetoaminophenyl)hydrazonopyrazole] | 5
NC1=NN=C(N)C1=NNc1c(O)ccc2ccccc12 [KP-27393, 3,5-diamino-4-(2-hydroxynaphthyl)hydrazonopyrazole] | 3

Now from value to compound:

IC50 [µM] | SMILES
5.3 | Cc1ccc(NN=C2C(N)=NN=C2N)cc1 [KP-23195, 3,5-diamino-4-(p-methylphenyl)hydrazonopyrazole]
9.6 | NC1=NN=C(N)C1=NNN1CCOCC1 [KP-27289, 3,5-diamino-4-morpholinylhydrazonopyrazole]
8.2 | NC1=NN=C(N)C1=NNCCN1CCOCC1 [KP-27290, 3,5-diamino-4-(2-morpholinylethyl)hydrazonopyrazole]
28 | NC1=NN=C(N)C1=NNc1ncc[nH]1 [KP-27291, 3,5-diamino-4-(2-imidazolyl)hydrazonopyrazole]
8 | NC1=NN=C(N)C1=NNc1cc[nH]n1 [KP-27292, 3,5-diamino-4-(3-pyrazolyl)hydrazonopyrazole]
0.9 | NC1=NN=C(N)C1=NNc1nccs1 [KP-27293, 3,5-diamino-4-(2-thiazolyl)hydrazonopyrazole]
13 | NC1=NN=C(N)C1=NNCC1CCNCC1 [KP-27386, 3,5-diamino-4-(4-piperidinylmethyl)hydrazonopyrazole]
> 20 | NC1=NN=C(N)C1=NNc1nccnn1 [KP-27387, 3,5-diamino-4-(3-[1,2,4]triazinyl)hydrazonopyrazole]
> 20 | NC1=NN=C(N)C1=NNc1ccc(O)cc1 [KP-27389, 3,5-diamino-4-(p-hydroxyphenyl)hydrazonopyrazole]
1.2 | NC1=NN=C(N)C1=NNc1ccc(Cl)cc1 [KP-27390, 3,5-diamino-4-(p-chlorophenyl)hydrazonopyrazole]
